According to US20150299125A1, “PRODRUG BIPYRIDYLAMINOPYRIDINES AS SYK INHIBITORS” (MERCK SHARP & DOHME CORP., priority 2012, published 2015):
In brackets after ≈: the same amount, converted by molar mass.

How the values were obtained:
[1] = target: T1, recombinant human GST-Syk (Homo sapiens, UniProt P43405); experiment: Homogeneous Time-Resolved Fluorescence (HTRF) assay for the recombinant human Syk enzyme; assay type: biochemical; conditions: recombinant human GST-Syk 5 pM, ATP 25 μM, read-out: IC50
T1 construct: purchased Carna Biosciences 08-176
Method: Syk inhibition of the compounds of Formula (I) may be determined using the following assay protocol: Homogeneous Time-Resolved Fluorescence (HTRF) Assay for the Recombinant Human Syk Enzyme: A recombinant GST-hSyk fusion protein was used to measure potency of compounds to inhibit human Syk activity. […] Final volume of the reaction was 10 μL. Phosphorylation of the peptide was allowed to proceed for 45' at room temperature. To quench the reaction and detect the phosphorylated product, 2 nM of a Europium-anti-phosphotyrosine antibody (Perkin Elmer #AD0161) and 70 nM SA-APC (Perkin-Elmer #CR130-100) were added together in 15 mM Tris pH 7.5, 40 mM EDTA, 0.01% tween 20. Final volume of the quenching solution was 10 μL. The resulting HTRF signal was measured after 30 minutes on a EnVision (Perkin-Elmer) reader using a time-resolved fluorescence protocol.

[2] = Solubility in biorelevant fasted state simulated intestinal fluid (FaSSIF); assay type: physicochemical; conditions: 25 °C, fassif, kinetic from dmso stock, Solubility
Method: Solubility in Biorelevant Fasted State Simulated Intestinal Fluid (FaSSIF):
A 10 mM DMSO stock solution of compound to be tested is used. A 100 μM standard solution is generated by diluting 2.5 μL of the 10 mM stock solution with 247.5 μL of diluent (10% DMSO/10% MeCN/80% MeOH, v/v/v). A solubility solution is generated by diluting 5 μL of the 10 mM stock solution with 245 μL of FaSSIF (maximum solubility approximately 200 μM). […] The equilibrated solubility solution is filtered by centrifugation (3 minutes at 4000 rpm) using a 0.45 µm filter with a polypropylene membrane. The standard solution and the filtered equilibrated solubility solution are analyzed by HPLC/DAD. The solubility value is calculated by the following equation:
Solubility=(Peak area of sample/Peak area of standard)(Standard concentration)

SMILES	IC50 [1]	solubility [2]
Cc1cc(Nc2cc(C(F)F)ccn2)nc(-c2ccc([C@](C)(O)[C@H]3CC[C@H](C(=O)OC[C@H]4COC(C)(C)O4)CC3)nc2)c1 [Example 1-14, [(4R)-2,2-dimethyl-1,3-dioxolan-4-yl]methyl trans-4-[(1R)-1-(6-{[4-(difluoromethyl)pyridin-2-yl]amino}-4-methyl-2,3′-bipyridin-6′-yl)-1-hydroxyethyl] cyclohexanecarboxylate]	27.6 nM	109 µM (≈ 65 µg/mL)
Cc1cc(Nc2cc(C(F)F)ccn2)nc(-c2ccc([C@](C)(O)[C@H]3CC[C@H](C(=O)OCC4CCOCC4)CC3)nc2)c1 [Example 1-20, tetrahydro-2H-pyran-4-ylmethyl trans-4-[(1R)-1-(6-{[4-(difluoromethyl)pyridin-2-yl]amino}-4-methyl-2,3′-bipyridin-6′-yl)-1-hydroxyethyl] cyclohexanecarboxylate]	34.1 nM	47 µM (≈ 27.3 µg/mL)
Cc1cc(Nc2cc(C(F)F)ccn2)nc(-c2ccc([C@](C)(O)[C@H]3CC[C@H](C(=O)OCCCCCCN(C)C)CC3)nc2)c1 [Example 1-25, 6-(dimethylamino)hexyl trans-4-[(1R)-1-(6-{[4-(difluoromethyl)pyridin-2-yl]amino}-4-methyl-2,3′-bipyridin-6′-yl)-1-hydroxyethyl] cyclohexanecarboxylate]	< 0.5 nM	73 µM (≈ 44.5 µg/mL)
Cc1cc(Nc2cc(C(F)F)ccn2)nc(-c2ccc([C@](C)(O)[C@H]3CC[C@H](C(=O)OCCCN(C)C)CC3)nc2)c1 [Example 1-13, 3-(dimethylamino)propyl trans-4-[(1R)-1-(6-{[4-(difluoromethyl)pyridin-2-yl]amino}-4-methyl-2,3′-bipyridin-6′-yl)-1-hydroxyethyl] cyclohexanecarboxylate]	4.4 nM	140 µM (≈ 79.5 µg/mL)
Cc1cc(Nc2cc(C(F)F)ccn2)nc(-c2ccc([C@](C)(O)[C@H]3CC[C@H](C(=O)OCc4nccn4C)CC3)nc2)c1 [Example 1-11, (1-methyl-1H-imidazol-2-yl)methyl trans-4-[(1R)-1-(6-{[4-(difluoromethyl)pyridin-2-yl]amino}-4-methyl-2,3′-bipyridin-6′-yl)-1-hydroxyethyl] cyclohexanecarboxylate]	2.1 nM	57 µM (≈ 32.9 µg/mL)
Cc1cc(Nc2cc(C(F)F)ccn2)nc(-c2ccc([C@](C)(O)[C@H]3CC[C@H](C(=O)O[C@H]4C[C@H](N)C4)CC3)nc2)c1 [Example 1-19, trans-3-aminocyclobutyl trans-4-[(1R)-1-(6-{[4-(difluoromethyl)pyridin-2-yl]amino}-4-methyl-2,3′-bipyridin-6′-yl)-1-hydroxyethyl] cyclohexanecarboxylate]	4.4 nM	98 µM (≈ 54.1 µg/mL)
Cc1cc(Nc2cc(C(F)F)ccn2)nc(-c2ccc([C@](C)(O)[C@H]3CC[C@H](C(=O)OCC[S@+](C)[O-])CC3)nc2)c1 (single isomer, unassigned) [Example 7-1b]	3.3 nM	52 µM (≈ 29.8 µg/mL)
Cc1cc(Nc2cc(C(F)F)ccn2)nc(-c2ccc([C@](C)(O)[C@H]3CC[C@H](C(=O)OC(C)OC(=O)c4cnn(C)c4)CC3)nc2)c1 (single isomer, unassigned) [Example 3-2b]	22.4 nM	

The next lines start with the values.

IC50 [1]	solubility [2]	SMILES
5.2 nM	149 µM (≈ 97.4 µg/mL)	Cc1cc(Nc2cc(C(F)F)ccn2)nc(-c2ccc([C@](C)(O)[C@H]3CC[C@H](C(=O)OCOC(=O)O[C@H]4CC[C@H](N)CC4)CC3)nc2)c1 [Example 2-11, ({[(trans-4-aminocyclohexyl)oxy]carbonyl}oxy) methyl trans-4-[(1R)-1-(6-{[4-(difluoromethyl)pyridin-2-yl]amino}-4-methyl-2,3′-bipyridin-6′-yl)-1-hydroxyethyl]cyclo hexanecarboxylate]
1.1 nM	152 µM	CCCC[N+](CC)(CC)COC(=O)[C@H]1CC[C@H]([C@@](C)(O)c2ccc(-c3cc(C)cc(Nc4cc(C(F)F)ccn4)n3)cn2)CC1 [Example 5-6, N-{[({trans-4-[(1R)-1-(6-{[4-(difluoromethyl)pyridin-2-yl]amino}-4-methyl-2,3′-bipyridin-6′-yl)-1-hydroxyethyl]cyclohexyl}carbonyl)oxy]methyl}-N,N-diethylbutan-1-aminium]
1.5 nM	164 µM	Cc1cc(Nc2cc(C(F)F)ccn2)nc(-c2ccc([C@](C)(O)[C@H]3CC[C@H](C(=O)OC[N+]4(C)CCC(O)CC4)CC3)nc2)c1 (stereo partly drawn) [Example 5-27, 1-{[({trans-4-[(1R)-1-(6-{[4-(difluoromethyl)pyridin-2-yl]amino}-4-methyl-2,3′-bipyridin-6′-yl)-1-hydroxyethyl]cyclohexyl}carbonyl)oxy]methyl}-4-hydroxy-1-methylpiperidinium]
3.2 nM	162 µM (≈ 98.5 µg/mL)	Cc1cc(Nc2cc(C(F)F)ccn2)nc(-c2ccc([C@](C)(O)[C@H]3CC[C@H](C(=O)O[C@H]4CC[C@H](N(C)C)CC4)CC3)nc2)c1 [Example 9-1, Trans-4-(Dimethylamino)cyclohexyl trans-4-[(1R)-1-(6-{[4-(difluoromethyl)pyridin-2-yl]amino}-4-methyl-2,3′-bipyridin-6′-yl)-1-hydroxyethyl]cyclohexanecarboxylate]
1 nM	137 µM	CCC[N+](CCC)(CCC)COC(=O)[C@H]1CC[C@H]([C@@](C)(O)c2ccc(-c3cc(C)cc(Nc4cc(C(F)F)ccn4)n3)cn2)CC1 [Example 5-9, N-{[({trans-4-[(1R)-1-(6-{[4-(difluoromethyl)pyridin-2-yl]amino}-4-methyl-2,3′-bipyridin-6′-yl)-1-hydroxyethyl]cyclohexyl}carbonyl)oxy]methyl}-N,N-dipropylpropan-1-aminium]
1.3 nM	200 µM	CC[N+](CC)(CCCC(C)O)COC(=O)[C@H]1CC[C@H]([C@@](C)(O)c2ccc(-c3cc(C)cc(Nc4cc(C(F)F)ccn4)n3)cn2)CC1 (stereo partly drawn) [Example 5-7, N-{[({trans-4-[(1R)-1-(6-{[4-(difluoromethyl)pyridin-2-yl]amino}-4-methyl-2,3′-bipyridin-6′-yl)-1-hydroxyethyl]cyclohexyl}carbonyl)oxy]methyl}-N,N-diethyl-4-hydroxypentan-1-aminium]
1.9 nM	175 µM	CC[N+](COC(=O)[C@H]1CC[C@H]([C@@](C)(O)c2ccc(-c3cc(C)cc(Nc4cc(C(F)F)ccn4)n3)cn2)CC1)(C(C)C)C(C)C [Example 5-3, N-{[({trans-4-[(1R)-1-(6-{[4-(difluoromethyl)pyridin-2-yl]amino}-4-methyl-2,3′-bipyridin-6′-yl)-1-hydroxyethyl]cyclohexyl}carbonyl)oxy]methyl}-N-ethyl-N-(1-methylethyl)propan-2-aminium]
	156 µM (≈ 87.8 µg/mL)	Cc1cc(Nc2cc(C(F)F)ccn2)nc(-c2ccc([C@](C)(O)[C@H]3CC[C@H](C(=O)OCn4ccnc4)CC3)nc2)c1 [Example 6-4, 1H-imidazol-1-ylmethyl trans-4-[(1R)-1-(6-{[4-(difluoromethyl)pyridin-2-yl]amino}-4-methyl-2,3′-bipyridin-6′-yl)-1-hydroxyethyl]cyclohexanecarboxylate]
1.9 nM		Cc1cc(Nc2cc(C(F)F)ccn2)nc(-c2ccc([C@](C)(O)[C@H]3CC[C@H](C(=O)OC(C)OC(=O)c4cnn(C)c4)CC3)nc2)c1 (stereo partly drawn) [Example 3-2, 1-[({Trans-4-[(1R)-1-(6-{[4-(difluoromethyl)pyridin-2-yl]amino}-4-methyl-2,3′-bipyridin-6′-yl)-1-hydroxyethyl]cyclohexyl}carbonyl)oxy]ethyl 1-methyl-1H-pyrazole-4-carboxylate]
< 0.5 nM		Cc1cc(Nc2cc(C(F)F)ccn2)nc(-c2ccc([C@](C)(O)[C@H]3CC[C@H](C(=O)OC[N+](C)(C)C(C)c4ccccc4)CC3)nc2)c1 (stereo partly drawn) [Example 5-15, N-{[({trans-4-[(1R)-1-(6-{[4-(difluoromethyl)pyridin-2-yl]amino}-4-methyl-2,3′-bipyridin-6′-yl)-1-hydroxyethyl]cyclohexyl}carbonyl)oxy]methyl}-N,N-dimethyl-1-phenylethanaminium]
32.9 nM		CCOCCOCCOC(=O)OC(C)OC(=O)[C@H]1CC[C@H]([C@@](C)(O)c2ccc(-c3cc(C)cc(Nc4cc(C(F)F)ccn4)n3)cn2)CC1 (stereo partly drawn) [Example 2-15, 1-methyl-3-oxo-2,4,7,10-tetraoxadodec-1-yl trans-4-[(1R)-1-(6-{[4-(difluoromethyl)pyridin-2-yl]amino}-4-methyl-2,3′-bipyridin-6′-yl)-1-hydroxyethyl]cyclo hexanecarboxylate]
2.5 nM		CCCCCCCC[N+](CCCCCCCC)(CCCCCCCC)COC(=O)[C@H]1CC[C@H]([C@@](C)(O)c2ccc(-c3cc(C)cc(Nc4cc(C(F)F)ccn4)n3)cn2)CC1 [Example 5-8, N-{[({trans-4-[(1R)-1-(6-{[4-(difluoromethyl)pyridin-2-yl]amino}-4-methyl-2,3′-bipyridin-6′-yl)-1-hydroxyethyl]cyclohexyl}carbonyl)oxy]methyl}-N,N-dioctyloctan-1-aminium]
